In publication doi:10.1101/2024.07.22.604525v1 (bioRxiv, 2024):
Like-named read-outs stand apart in the source and are kept apart here. Where a SMILES comes first, the peptide text is derived from it.

Tests used:
C57BL/6J male SPF mice = experiment: Preliminary safety evaluation in mice; assay type: in vivo; conditions: 10 mg/kg and 100 mg/kg, gavage 3 times per week, 4 weeks, n = 6 mice/group
HFD-fed mice [1] = experiment: HFD-fed obese mice, VAMP for 1 week; assay type: in vivo; conditions: HFD 8 weeks, then VAMP 50 mg/kg daily for 1 week, vs vehicle, n = 6
HFD-fed mice [2] = assay type: in vivo; conditions: 8 weeks
ob/ob mice = experiment: ob/ob mice, VAMP for 4 weeks; assay type: in vivo; conditions: VAMP 50 mg/kg daily oral gavage, n = 6
A. muciniphila = assay type: in vivo; conditions: HFD-fed mice, VAMP 50 mg/kg oral gavage, 8 weeks; colonic contents, 16S rRNA
HFD-induced obese mice = experiment: HFD-induced obese mice, VAMP and/or benzydamine for 4 weeks; assay type: in vivo; conditions: HFD 8 weeks, then VAMP 50 mg/kg three times per week for 4 weeks, n = 6
[3] = tested on: other strains of Bacteroides; experiment: Single-strain growth in culture; assay type: cell-based; conditions: VAMP 50 μM vs PBS, anaerobic, 48 h, OD600 ratio
HFD-fed mice [4] = experiment: HFD-fed mice, TPH or sitagliptin for 8 weeks; assay type: in vivo; conditions: sitagliptin 12.5 mg/kg daily oral gavage
[5] = HFD plus VAMP 50 mg/kg daily oral gavage, vs HFD-fed control
[6] = HFD plus VAMP 50 mg/kg daily oral gavage, vs vehicle, n = 6

CSCC[C@H](NC(=O)[C@H](C)NC(=O)[C@@H](N)C(C)C)C(=O)N1CCC[C@H]1C(=O)O [VAMP] (H-VAMP-OH; N-terminus and C-terminus assumed) was tested, and the “side effects in mice (body weight, food intake, ALT, AST, UREA, CRE)” value (C57BL/6J male SPF mice) was “did not induce any obvious side effects”, the energy intake (HFD-fed mice [1]) was “no significant differences” and the “plasma active GLP-1 level” value (HFD-fed mice [1]) was “increased”. The “plasma total GLP-1 level” value (HFD-fed mice [1]) was “without altering”, the “thickness of colonic mucus layer” value (HFD-fed mice [2]; Alcian blue-stained sections, HFD plus VAMP 50 mg/kg) was “increased thickness of mucus layer” and the “plasma IL-1β level” value (HFD-fed mice [2]; [5]) was “significantly reduced”. For the same compound, the “plasma TNF-α level” value (HFD-fed mice [2]; [5]) was “significantly reduced”, the “plasma endotoxin (LPS) level” value (HFD-fed mice [2]; [5]) was “significantly reduced” and the “fat weight/body weight ratio” value (HFD-fed mice [2]; HFD plus VAMP 50 mg/kg daily oral gavage, vs vehicle) was “significantly decreased”. For the same compound, the “size of adipocytes in white adipose tissue” value (HFD-fed mice [2]; HFD plus VAMP 50 mg/kg daily oral gavage, vs vehicle, 3 mice per group) was “significantly decreased”, the FBG (HFD-fed mice [2]; [6]) was “significantly decreased” and the body weight (HFD-fed mice [2]; [6]) was “significantly decreased”. The fasting insulin level (HFD-fed mice [2]; [6]) was “decreased fasting insulin levels”, the “glucose tolerance (OGTT)” value (HFD-fed mice [2]; [6]) was “improved glucose tolerance” and the “intestinal active GLP-1 level” value (HFD-fed mice [2]; [6]) was “significantly increased”. The “intestinal total GLP-1 level” value (HFD-fed mice [2]; [6]) was “without affecting”, the “plasma active GLP-1 level” value (HFD-fed mice [2]; [6]) was “significantly increased” and the “plasma total GLP-1 level” value (HFD-fed mice [2]; [6]) was “without affecting”. For the same compound, the “expression of intestinal Tjp1, Ocln, Cldn3, and Muc2” value (HFD-fed mice [2]; colonic tissue mRNA, RT-qPCR, HFD plus VAMP 50 mg/kg) was “upregulate”, the FBG (ob/ob mice) was “steadily decreased” and the body weight (ob/ob mice) was “no significant difference”. For the same compound, the energy intake (ob/ob mice) was “no significant difference”, the “intestinal DPP-IV activity” value (ob/ob mice) was “suppressed intestinal DPP-IV activity” and the “intestinal active GLP-1 level” value (ob/ob mice) was “increased the levels”. For the same compound, the “plasma active GLP-1 level” value (ob/ob mice) was “increased the levels”, the “abundance of Akkermansia (genus level)” value (A. muciniphila) was “significantly increased” and the body weight (HFD-induced obese mice) was “significantly decreased”. The “growth of other strains of Bacteroides” value [3] was “failed to stimulate the growth”.
For N[C@@H](CC(=O)N1CCn2c(nnc2C(F)(F)F)C1)Cc1cc(F)c(F)cc1F [sitagliptin, Sitagliptin], the “glucose metabolism in obese mice” value (HFD-fed mice [4]) was “effectively improved glucose metabolism”.
